Test results published in publication PMC6009894, “Molecular modelling insights into a physiologically favourable approach to eicosanoid biosynthesis inhibition through novel thieno[2,3-b]pyridine derivatives” (Journal of Enzyme Inhibition and Medicinal Chemistry, 2018).
Values joined by “and” are separate entries in the source; they are usually repeats but may differ in a detail not shown here. Identical values can stand only once.

Columns and labels:
[1] = test system: carrageenan-induced rat paw oedema; test: carrageenan-induced rat paw oedema assay; type: in vivo, Sprague–Dawley rats; details: for Inhibition of acute inflammation % inh / Swel (mean difference in rat paw volume between right and left paw): dose equivalent to 70 mg kg-1 ibuprofen; for Swel (mean difference in rat paw volume between right and left paw): DMSO
Description: According to a priori test results, experiments were conducted on young adult male Sprague–Dawley rats (5 rats per group), weighing 140–170 g. The animals were housed at cages in a temperature controlled (25 ± 1 °C) environment and were fed ad libitum with standard laboratory chow and allowed free access to water. […] The animal protocol is in accordance with the Animal Ethical Care regulations in the Faculty of Pharmacy, Helwan University.
Compounds (equimolar to the reference drug) were dissolved in DMSO and administrated subcutaneously. One hour later, paw oedema was induced by subplantar injection of 0.1 ml of 1% carrageenan (Sigma-Aldrich, St. Louis, MO) into the right hind paw. Paw volume was measured using a water plethysmometer (Basile, Comerio, Italy). The difference between the right and left paw volume was measured at 1, 2, 3, and 4 h after induction of inflammation.
The control group (five rats per group) received DMSO subcutaneously and carrageenan in the subplantar region. Results were expressed as percentage inhibition of inflammation.

Compound	melting point [°C]	Inhibition of acute inflammation % inh ([1]; 1 h) [%]	Swel (mean difference in rat paw volume between right and left paw) ([1]; 1 h after carrageenan)	Inhibition of acute inflammation % inh ([1]; 2 h) [%]	Swel (mean difference in rat paw volume between right and left paw) ([1]; 2 h after carrageenan)	Inhibition of acute inflammation % inh ([1]; 3 h) [%]	Swel (mean difference in rat paw volume between right and left paw) ([1]; 3 h after carrageenan)	Inhibition of acute inflammation % inh ([1]; 4 h) [%]	Swel (mean difference in rat paw volume between right and left paw) ([1]; 4 h after carrageenan)	inflammation reduction % (4h) ([1]; rat paw oedema, 4 h time interval, subcutaneous, equimolar to ibuprofen 70 mg kg-1)
CC1=CC(C)=C(C#N)C2SCN(Cc3ccccc3)CN12 (racemic) [Compound 4c]	125 to 127	0	0.45	4.78	0.22	7.39	0.213	35.08	0.409	–
Cc1cc(C)c(C#N)c(=S)[nH]1 [Compound 1, 1,2-Dihydro-4,6-dimethyl-2-thioxopyridine-3-carbonitrile]	–	0	0.503	0	0.353	38.725	0.33	43.91	0.353	–
CSc1nc(C)cc(C)c1C#N [Compound 3a, S-Methyl-4,6-dimethyl-2-thiopyridine-3-carbonitrile]	–	0	0.382	0	0.363	12.438	0.476	43.7	0.354	–
CCOC(=O)c1sc2nc(C)cc(C)c2c1N [Compound 5, Ethyl-3-amino-4,6-dimethylthieno[2,3-b]pyridine-2-carboxylate]	–	0	0.393	0	0.46	28.921	0.386	46.03	0.34	–
Cc1cc(C)c2c(N)c(C(=O)NN)sc2n1 [Compound 6, 3-Amino-4,6-dimethylthieno[2,3-b]pyridine-2-carbazide]	–	0	0.410	0	0.486	38.84	0.332	58.67	0.26	–
COc1ccc(C=NNC(=O)c2sc3nc(C)cc(C)c3c2N)cc1 [Compound 7c, 3-Amino-4,6-dimethyl-thieno [2,3-b] pyridine-2-carboxylic acid (4-methoxy-benzylidene)-hyrazide]	–	11.59	0.203	25.64	0.193	58.3	0.226	63.49	0.23	–
CC(C)Cc1ccc(C(C)C(=O)O)cc1 (stereo not drawn) [Ibuprofen, reference compound]	–	6.08	–	45	–	60.66	–	69.52	–	69.5% and 69.52%

Further lines, with some results ahead:

melting point [°C]	Compound	Inhibition of acute inflammation % inh ([1]; 1 h) [%]	Swel (mean difference in rat paw volume between right and left paw) ([1]; 1 h after carrageenan)	Inhibition of acute inflammation % inh ([1]; 2 h) [%]	Swel (mean difference in rat paw volume between right and left paw) ([1]; 2 h after carrageenan)	Inhibition of acute inflammation % inh ([1]; 3 h) [%]	Swel (mean difference in rat paw volume between right and left paw) ([1]; 3 h after carrageenan)	Inhibition of acute inflammation % inh ([1]; 4 h) [%]	Swel (mean difference in rat paw volume between right and left paw) ([1]; 4 h after carrageenan)	inflammation reduction % (4h) ([1]; rat paw oedema, 4 h time interval, subcutaneous, equimolar to ibuprofen 70 mg kg-1)
105 to 107	CC1=CC(C)=C(C#N)C2SC(=Cc3ccccc3)C(=O)N12 (racemic) [Compound 2a]	0	0.457	0	0.595	16.605	0.453	21.95	0.491	–
180 to 182	CC1=CC(C)=C(C#N)C2SCN(c3ccccc3)CN12 (racemic) [Compound 4a, (±)3-Aryl-2,3,4,9a-tetrahydro-6,8-dimethylpyrido[2,1-b][1,3,5]thiadiazine-9-carbonitrile]	0	0.394	0	0.407	38.174	0.336	43.38	0.356	–
93	CCOC(=O)CSc1nc(C)cc(C)c1C#N [Compound 3b, ethyl 2-(3-cyano-4,6-dimethylpyridin-2-ylthio)acetate]	–	–	–	–	–	–	–	–	–
300 to 302	Cc1cc(C)c2c(n1)sc1c(=O)n(N=Cc3ccccc3)nnc12 [Compound 8a, 7,9-Dimethyl-3-[(phenylmethylene)amino]pyrido[3′,2′:4,5]thieno[3,2-d][1,2,3]triazin-4(3H)-one]	0	0.256	14.1	0.223	30.75	0.376	53.96	0.29	–
150 to 152	Cc1cc(C)c2c(N)c(-n3nc(C)cc3C=C=O)sc2n1 [Compound 9b, 3-Amino-2-[carbonyl (3,5-dimethyl-pyrazol-1-yl)]-4,6-dimethylthieno[2,3-b] pyridine]	–	–	–	–	–	–	–	–	–
133 to 135	CC(=O)N(C(C)=O)n1c(C)nc2c(sc3nc(C)cc(C)c32)c1=O [Compound 10b, 3-Diacetylamino-2,7,9-trimethylpyrido [3',2':4,5]thieno[3,2-d]pyrimidin-4(3H)-one]	–	–	–	–	–	–	–	–	–
